Laboratory results as given in PubChem BioAssay AID1159562 (GlaxoSmithKline (GSK), 2015).
The source made the active and inactive calls. The rule behind the calls is not given here.

system: Trypanosoma brucei growth inhibition, luminescence; assay: antitrypanosomal activity against T. brucei – luminescence (AID 1159562);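 note: parasites grew with compound for 24 h before the luminescence read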

Compound	IC50
COc1ccc(S(=O)(=O)Nc2ccc(C(=O)Nc3nc(-c4ccccn4)cs3)cc2)cc1	630 nM
CCC(CC)C(=O)Nc1cccc(C(=O)Nc2nnc(C3CCCCC3)s2)c1	630 nM
CCOc1ccc(N(C)S(=O)(=O)c2ccc3[nH]cc(C(=O)NC4CCCC4)c(=O)c3c2)cc1	500 nM
CNS(=O)(=O)c1ccccc1Nc1nc(Nc2ccnn2C)ncc1Cl	100 nM
Cc1nn2c(NCCCO)c3c(nc2c1-c1cccs1)CCC3	400 nM
O=C(Nc1ncc([N+](=O)[O-])s1)C1CC1	40000 nM
COc1ccc(CN(C)Cc2ccncc2)cc1-c1ccc(S(=O)(=O)NC2CCC2)s1	20000 nM
Cc1cnc(Nc2cc(Cc3ccccc3)nc(NC3CCC(O)CC3)n2)s1 (stereo not given)	40 nM
CN(C)Cc1ccc(N2CCC(NS(=O)(=O)c3ccc(Cl)cc3)CC2)cc1	32000 nM
CN(C)CCN(C)Cc1ccc(Cl)cc1NS(=O)(=O)c1ccc(Cl)c(Cl)c1	4000 nM
CCN(CC)c1ncc(C(=O)c2ccc([N+](=O)[O-])o2)s1	400 nM
CC(C)c1sc(Cl)nc1C(=O)NCCc1nc(C(=O)Nc2ccc3c(c2)OCO3)cs1	25000 nM
O=[N+]([O-])c1ccc(-c2nnn(-c3ccc(Cl)cc3)n2)o1	1000 nM
COc1cccc(NS(=O)(=O)c2ccc3[nH]cc(C(=O)NCCC(C)C)c(=O)c3c2)c1	630 nM
CN(C)c1ccc(N)cc1CN(CC1CCCO1)S(C)(=O)=O (stereo not given)	> 40000 nM (inactive)
O=C(c1ccccc1)N1CCC(C(=O)N2CCC(Oc3ccccc3Cl)CC2)CC1	1000 nM
O=C1CN(C2CCCc3c(OCc4ccncc4)cccc32)C(=O)N1C1CCCCC1 (stereo not given)	> 40000 nM (inactive)
CC1CN(S(=O)(=O)c2ccc(NC(=O)c3cc(C4CC4)nc4c3cnn4C(C)C)cc2)CC(C)O1 (stereo not given)	6300 nM
CC1(C)CCC(=Cc2ccc(Cl)cc2)CC1(O)Cn1ccnc1 (stereo not given)	25000 nM
Cn1ccnc1CN1CCc2[nH]cnc2C1c1ccccc1OCc1ccccc1 (stereo not given)	500 nM
Cc1nc(-c2ccncc2)ncc1C(C)NC(=O)c1ccc(Cl)s1 (stereo not given)	1000 nM
CCN(CC)S(=O)(=O)c1ccc(C(=O)Nc2cc(C)nn2-c2nc(C)c(C)c(=O)[nH]2)cc1	320 nM
O=C1CN(C(=O)c2cccc(Nc3ncc(-c4ccc5c(c4)OCO5)cn3)c2)CCN1	> 50000 nM (inactive)
O=C(Cc1ccc2c(c1)CCC2)Nc1n[nH]c(-c2ccccn2)n1	> 40000 nM (inactive)
Cc1ccc2c(c1)-c1onc(C(=O)N3CCCCC3c3cccnc3)c1CO2 (stereo not given)	> 40000 nM (inactive)

Compound	IC50
CC(=O)Nc1cccc(Nc2ncnc3nc[nH]c23)c1	400 nM
Cc1cccnc1NC(=O)c1cccc(OCc2c(C)noc2C)c1	790 nM
Cc1ccc(S(=O)(=O)Nc2ccc(CN3CCN(C(=O)c4cccc(C#N)c4)CC3)cc2)cc1	320 nM
CNc1cncc(C2CCCN2C(=O)Cc2coc3cc(C)ccc23)n1 (stereo not given)	> 40000 nM (inactive)
COc1ccc2ncc(=O)n(CCN3CCOC(CNCc4ccc(C(F)(F)F)cc4F)C3)c2n1 (stereo not given)	2500 nM
O=C(Nc1nc2ccccc2[nH]1)c1c(O)c2cccc3c2n(c1=O)CC3	20000 nM
O=c1[nH]cnc2c([C@@H]3O[C@H](CO)[C@@H](O)[C@H]3O)[nH]nc12	5 nM
CC(C)N(C(=O)CN1C(=O)C(N)C(=O)N(c2ccccc2)c2ccccc21)c1ccccc1 (stereo not given)	> 40000 nM (inactive)
CC(C)COC(=O)Nc1ccc(N2CCC(CNS(=O)(=O)c3ccccc3)CC2)c(F)c1	20000 nM
CCCCn1nnnc1CSc1nc(C)cc(C)c1C#N	> 40000 nM (inactive)
O=c1cc(NCCCNC2CCOc3c(I)cc(Cl)cc32)[nH]c2ccccc12 (stereo not given)	20 nM
c1ccc2sc(Nc3nc4ncccc4[nH]3)nc2c1	1600 nM
Clc1ccc(CN2CCN(C3=NCCN3)CC2)cc1Cl	> 40000 nM (inactive)
O=C(c1ccc(OCCCc2cnc[nH]2)cc1)C1CC1	> 40000 nM (inactive)
COc1ccc(C(=O)NC2CCN(CCn3c(=O)ccc4ncc(F)cc43)CC2)cc1Cl	250 nM
O=C(Cn1cnc([N+](=O)[O-])n1)Nc1ccc(Cl)cc1C(=O)c1ccccc1	32000 nM
N#Cc1cccc(CN2CCC(N(Cc3cccnc3)C(=O)c3cc(F)c(F)cc3F)CC2)c1	> 40000 nM (inactive)
Cc1cc(C)cc(NS(=O)(=O)c2cc(-c3cc(C)[nH]n3)ccc2C)c1	2000 nM
CC(=O)Nc1ccc(-c2noc(CC3CCCN(Cc4cccc(F)c4C)C3)n2)cc1 (stereo not given)	25000 nM
Cc1cc(Nc2ccc(C#N)c(Cl)c2C)n[nH]1	250 nM
CCCCN(C(=O)c1ccc(NC(=O)C(C)C)cc1)c1ccccc1	> 40000 nM (inactive)
CC(CCc1ccccc1)NC(=O)CN(Cc1ccccn1)Cc1ccccn1 (stereo not given)	5000 nM
O=C(Nc1nc(-c2ccccn2)cs1)c1ccccc1-n1cnnn1	630 nM
CC1=C(C(=O)Nc2ccc(Cl)cc2)C(c2ccncc2)n2ncc(C(=O)Nc3ccccc3)c2N1 (stereo not given)	> 40000 nM (inactive)
COCc1cnc2c(c1SCc1c(F)cccc1Cl)c(=O)n(C)c(=O)n2C	> 40000 nM (inactive)

Compound	IC50
COc1ccc2nccc([C@H](O)CN3CC[C@H](NC(=O)c4ccc(Br)cc4)[C@@H](O)C3)c2n1	500 nM
COc1ccc(C(=O)N2CCC(Nc3cccnc3)C2)c(OC)n1 (stereo not given)	> 40000 nM (inactive)
O=[N+]([O-])c1ccc(C2=CC(c3ccccc3)=NCCN2)cc1	> 13000 nM (inactive)
COc1cnc2ccc(=O)n(CCN3CCC(NC(=O)c4ccc(Cl)cc4)CC3)c2c1	100 nM
Cc1cc(N(C)C)nc(Nc2ccccc2C)n1	> 40000 nM (inactive)
Cc1ccc(S(=O)(=O)Nc2ccc(CN3CCN(C(=O)c4cccc(C)c4)CC3)cc2)cc1	500 nM
O=C1NCc2cccc(Nc3nc(NC4CCC(O)CC4)ncc3Br)c21 (stereo not given)	130 nM
CCn1c(NC(=O)Cc2ccc(F)cc2)nc2ccccc21	5000 nM
COc1ccc(C2=NCC(CSc3nnc(-c4ccc5c(c4)OCO5)o3)S2)cc1 (stereo not given)	> 40000 nM (inactive)
Clc1ccc(OCCN2CCCCC2c2cccnc2)c(Cl)c1 (stereo not given)	> 40000 nM (inactive)
O=C(NCc1nnc2n1CCCCC2)c1csc(-c2ccccc2)n1	400 nM
CN(C)Cc1ccc(-c2ccc(S(=O)(=O)NCC3CCCO3)c(F)c2)cc1 (stereo not given)	40000 nM
O=c1cc(CSc2ccc(Cl)cc2)nc(-c2ccccn2)[nH]1	1000 nM
O=C(NCC(c1cccnc1)N1CCc2ccccc2C1)C(=O)Nc1cccc(Cl)c1 (stereo not given)	20000 nM
CCOc1ccc2nc(NC(=O)c3ccc([N+](=O)[O-])s3)sc2c1	2500 nM
Cc1ccc2ccc(C(Nc3ccccn3)c3cccnc3)c(O)c2n1 (stereo not given)	4000 nM
COc1ccc(NC(=O)c2ccc(NC(=O)CN(c3ccccc3C)S(C)(=O)=O)cc2)cc1	790 nM
Cc1cc2ncn(-c3ccc([N+](=O)[O-])cc3C#N)c2cc1C	> 40000 nM (inactive)
O=S(=O)(NCC(c1cccnc1)N1CCN(c2ccc(F)cc2)CC1)c1cccs1 (stereo not given)	> 40000 nM (inactive)
COc1ccc(NS(=O)(=O)c2cccc(NC(=O)c3cc(F)cc(F)c3)c2)cc1	1000 nM
CS(=O)(=O)c1cccc(CNC(=O)c2cncc(N3CCN(c4ccc(F)cc4)CC3)c2)c1	> 40000 nM (inactive)
N#Cc1ccc(C(=O)Nc2cccc(-c3cccc(CN4CCC(O)CC4)c3)c2)cc1	790 nM
Cc1cc(C)n(-c2nc(NC(C)C)nc(NC(C)(C)C)n2)n1	13000 nM
OCC1CCCCN1c1cc(-c2ccccn2)nc(Nc2ccccc2)n1 (stereo not given)	6300 nM
c1cc(-c2ncc(-c3ccn[nH]3)s2)ccn1	> 40000 nM (inactive)
